Measured values from ChEMBL document CHEMBL1201862, “PubChem BioAssay data set” (2004).
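The compound was tested at five concentrations on cells cultured in 96-well plates, with a 48-hour exposure period. GI50 marks 50% less growth.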 Activity calls are given as the source filed them. Rule as the data show it: active = GI50 up to about 1.1 µM and inactive = higher.

How the values were obtained:
Experiment in all cases: DTP human tumour cell line panel, 48 h
KM12 = test system: KM12
MDA-N = test system: MDA-N
NCI-H522 = test system: NCI-H522
SW-620 = test system: SW-620
NCI-H226 = test system: NCI-H226
Hs-578T = test system: Hs-578T
SF-295 = test system: SF-295
OVCAR-5 = test system: OVCAR-5
NCI-H23 = test system: NCI-H23
A549 = test system: A549
MDA-MB-231 = test system: MDA-MB-231
T47D = test system: T47D
HCT-15 = test system: HCT-15
CCRF-CEM = test system: CCRF-CEM
COLO 205 = test system: COLO 205
SR = test system: SR
HT-29 = test system: HT-29
SNB-19 = test system: SNB-19
OVCAR-3 = test system: OVCAR-3
HL-60 = test system: HL-60
SK-MEL-5 = test system: SK-MEL-5
786-0 = test system: 786-0
HOP-92 = test system: HOP-92
EKVX = test system: EKVX
NCI-H460 = test system: NCI-H460
TK-10 = test system: TK-10
U-251 = test system: U-251
OVCAR-4 = test system: OVCAR-4
MCF7 = test system: MCF7
Malme-3M = test system: Malme-3M
PC-3 = test system: PC-3
HCT-116 = test system: HCT-116
LOX IMVI = test system: LOX IMVI
RXF 393 = test system: RXF 393
SF-268 = test system: SF-268
ACHN = test system: ACHN
SN12C = test system: SN12C
CAKI-1 = test system: CAKI-1
UACC-257 = test system: UACC-257
SK-OV-3 = test system: SK-OV-3
HCC 2998 = test system: HCC 2998
NCI/ADR-RES = test system: NCI/ADR-RES
SF-539 = test system: SF-539
SK-MEL-28 = test system: SK-MEL-28
OVCAR-8 = test system: OVCAR-8
MOLT-4 = test system: MOLT-4
A498 = test system: A498
IGROV-1 = test system: IGROV-1
HOP-62 = test system: HOP-62
K562 = test system: K562
M14 = test system: M14
DU-145 = test system: DU-145
MDA-MB-435 = test system: MDA-MB-435
SK-MEL-2 = test system: SK-MEL-2
UACC-62 = test system: UACC-62
UO-31 = test system: UO-31
RPMI-8226 = test system: RPMI-8226
BT-549 = test system: BT-549
SNB-75 = test system: SNB-75

c1coc(-c2nccc3c2[nH]c2ccccc23)c1
GI50 (KM12): > 100 µM (inactive)
GI50 (MDA-N): > 100 µM (inactive)
GI50 (NCI-H522): > 100 µM (inactive)
GI50 (SW-620): > 100 µM (inactive)
GI50 (NCI-H226): 29.1 µM (inactive)
GI50 (Hs-578T): > 100 µM (inactive)
GI50 (SF-295): > 100 µM (inactive)
GI50 (OVCAR-5): > 100 µM (inactive)
GI50 (NCI-H23): > 100 µM (inactive)
GI50 (A549): > 100 µM (inactive)
GI50 (MDA-MB-231): > 100 µM (inactive)
GI50 (T47D): > 100 µM (inactive)
GI50 (HCT-15): > 100 µM
GI50 (CCRF-CEM): > 100 µM (inactive)
GI50 (COLO 205): 17.5 µM (inactive)
GI50 (SR): > 100 µM (inactive)
GI50 (HT-29): > 100 µM (inactive)
GI50 (SNB-19): > 100 µM (inactive)
GI50 (OVCAR-3): > 100 µM (inactive)
GI50 (HL-60): > 100 µM (inactive)
GI50 (SK-MEL-5): > 100 µM (inactive)
GI50 (786-0): > 100 µM (inactive)
GI50 (HOP-92): 35 µM (inactive)
GI50 (EKVX): > 100 µM (inactive)
GI50 (NCI-H460): > 100 µM (inactive)
GI50 (TK-10): > 100 µM (inactive)
GI50 (U-251): > 100 µM (inactive)
GI50 (OVCAR-4): > 100 µM (inactive)
GI50 (MCF7): > 100 µM (inactive)
GI50 (Malme-3M): > 100 µM (inactive)
GI50 (PC-3): > 100 µM (inactive)
GI50 (HCT-116): > 100 µM (inactive)
GI50 (LOX IMVI): > 100 µM (inactive)
GI50 (RXF 393): > 100 µM (inactive)
GI50 (SF-268): > 100 µM (inactive)
GI50 (ACHN): > 100 µM (inactive)
GI50 (SN12C): > 100 µM (inactive)
GI50 (CAKI-1): > 100 µM (inactive)
GI50 (UACC-257): > 100 µM (inactive)
GI50 (SK-OV-3): > 100 µM (inactive)
GI50 (HCC 2998): > 100 µM (inactive)
GI50 (NCI/ADR-RES): > 100 µM (inactive)
GI50 (SF-539): > 100 µM (inactive)
GI50 (SK-MEL-28): > 100 µM (inactive)
GI50 (OVCAR-8): > 100 µM (inactive)
GI50 (MOLT-4): > 100 µM (inactive)
GI50 (A498): > 100 µM (inactive)
GI50 (IGROV-1): > 100 µM (inactive)
GI50 (HOP-62): > 100 µM (inactive)
GI50 (K562): > 100 µM (inactive)
GI50 (M14): > 100 µM (inactive)
GI50 (DU-145): > 100 µM (inactive)
GI50 (MDA-MB-435): > 100 µM (inactive)
GI50 (SK-MEL-2): > 100 µM (inactive)
GI50 (UACC-62): > 100 µM (inactive)

CCC(C)[C@H](NC(=O)N[C@H](C)c1ccccc1)C(=O)OC (some centres not stated)
GI50 (KM12): > 100 µM (inactive)
GI50 (MDA-N): > 100 µM (inactive)
GI50 (SW-620): > 100 µM (inactive)
GI50 (NCI-H226): > 100 µM (inactive)
GI50 (SF-295): > 100 µM (inactive)
GI50 (UO-31): > 100 µM (inactive)
GI50 (RPMI-8226): > 100 µM (inactive)
GI50 (OVCAR-5): > 100 µM (inactive)
GI50 (NCI-H23): > 100 µM (inactive)
GI50 (A549): > 100 µM (inactive)
GI50 (MDA-MB-231): > 100 µM (inactive)
GI50 (HCT-15): > 100 µM
GI50 (CCRF-CEM): > 100 µM (inactive)
GI50 (COLO 205): > 100 µM (inactive)
GI50 (SR): > 100 µM (inactive)
GI50 (HT-29): > 100 µM (inactive)
GI50 (SNB-19): > 100 µM (inactive)
GI50 (OVCAR-3): > 100 µM (inactive)
GI50 (HL-60): > 100 µM (inactive)
GI50 (SK-MEL-5): > 100 µM (inactive)
GI50 (786-0): > 100 µM (inactive)
GI50 (HOP-92): > 100 µM (inactive)
GI50 (EKVX): > 100 µM (inactive)
GI50 (NCI-H460): > 100 µM (inactive)
GI50 (TK-10): > 100 µM (inactive)
GI50 (U-251): > 100 µM (inactive)
GI50 (OVCAR-4): > 100 µM (inactive)
GI50 (MCF7): > 100 µM (inactive)
GI50 (PC-3): > 100 µM (inactive)
GI50 (HCT-116): > 100 µM (inactive)
GI50 (LOX IMVI): > 100 µM (inactive)
GI50 (ACHN): > 100 µM (inactive)
GI50 (SN12C): > 100 µM (inactive)
GI50 (CAKI-1): > 100 µM (inactive)
GI50 (UACC-257): > 100 µM (inactive)
GI50 (BT-549): > 100 µM (inactive)
GI50 (SK-OV-3): > 100 µM (inactive)
GI50 (SNB-75): > 100 µM (inactive)
GI50 (HCC 2998): > 100 µM (inactive)
GI50 (SF-539): 25.8 µM (inactive)
GI50 (SK-MEL-28): > 100 µM (inactive)
GI50 (OVCAR-8): > 100 µM (inactive)
GI50 (MOLT-4): > 100 µM (inactive)
GI50 (A498): > 100 µM (inactive)
GI50 (IGROV-1): > 100 µM (inactive)
GI50 (HOP-62): > 100 µM (inactive)
GI50 (K562): > 100 µM (inactive)
GI50 (M14): > 100 µM (inactive)
GI50 (DU-145): > 100 µM (inactive)
GI50 (MDA-MB-435): > 100 µM (inactive)
GI50 (SK-MEL-2): > 100 µM (inactive)
GI50 (UACC-62): > 100 µM (inactive)
